Values quoted from earlier work as cited in patent US20130323323A1, “Therapeutic Method and Associated Compound for Augmenting the Liver's Metabolization of Oxygen-Modified Toxins” (priority 2012, published 2013).
Read-outs that look alike come from different tables or passages of the source.

Assays:
[1] = limited supply of oxygen to the liver
[2] = not given; remark: listed apart in the source
[3] = pure oxygen via inhalation; rats, cats, and dogs

Compound: Cn1c(=O)c2c(ncn2C)n(C)c1=O [Caffeine]
- time to peak plasma concentration (after ingestion): 30 to 45 min
- bioavailable (in vivo): ~100%

Compound: CCO [alcohol, Ethanol]
- rate at which alcohol is metabolized (plateau) [1]: around 0.02 g alcohol/100 ml blood per hour

Compound: O=O [oxygen]
- solubility of oxygen in water ([2]; 5 degrees Celsius and 1 standard atmosphere): 9 ppm
- solubility of oxygen in water ([2]; 25 degrees Celsius and 1 standard atmosphere): 6 ppm
- increase in the elimination rate of ethanol [3]: No measurable increase
